Data: patent US10226460B2, “Pharmaceutically acceptable salts of pirlindole enantiomers for use in medicine” (TECNIMEDE SOCIEDADE TECNICO-MEDICINAL S.A., priority 2014, dated 2019)

Experiment: Solubility test, classical saturation shake-flask method in 0.1N HCl
Type: physicochemical
Experimental: The Solubility test performed for showing the present invention's advantages is well known in the state of the art and is based on the “Classical saturation shake-flask method”, which comprises: Agitation at 37° C. during 15 h of supersaturated solution of the solid in HCl (aq) 0.1N, followed by filtration, dilution with water and quantification by UV measurement at 267 nm wavelength.

## Cc1ccc2c(c1)c1c3n2CCNC3CCC1.Cl (racemic) [(rac)-pirlindole•HCl, 2,3,3a,4,5,6-hexahydro-1H-8-methyl-pyrazine [3,2,1-j,k]carbazole]
  Solubility category in 0.1 N HCl: slightly soluble
